Inhibition data for 12 compounds are collected here from ChEMBL document CHEMBL2417377, “Hit-to-lead optimization and kinase selectivity of imidazo[1,2-a]quinoxalin-4-amine derived JNK1 inhibitors” (Bioorg Med Chem Lett, 2013).

For assay [1], the target named is Macrophage-stimulating protein receptor (Homo sapiens) (UniProt Q04912). Kind of assay: Inhibition of RON in human PC3 cell lysates at 10 uM using desthiobiotin-tagged ATP probe AX9989 followed by trypsinization by LC/MS analysis. The following applies: PC-3.
Assay [2] deals with T1, Phosphatidylinositol 5-phosphate 4-kinase type-2 gamma (Homo sapiens) (UniProt Q8TBX8).
T1 sequence (whole entry): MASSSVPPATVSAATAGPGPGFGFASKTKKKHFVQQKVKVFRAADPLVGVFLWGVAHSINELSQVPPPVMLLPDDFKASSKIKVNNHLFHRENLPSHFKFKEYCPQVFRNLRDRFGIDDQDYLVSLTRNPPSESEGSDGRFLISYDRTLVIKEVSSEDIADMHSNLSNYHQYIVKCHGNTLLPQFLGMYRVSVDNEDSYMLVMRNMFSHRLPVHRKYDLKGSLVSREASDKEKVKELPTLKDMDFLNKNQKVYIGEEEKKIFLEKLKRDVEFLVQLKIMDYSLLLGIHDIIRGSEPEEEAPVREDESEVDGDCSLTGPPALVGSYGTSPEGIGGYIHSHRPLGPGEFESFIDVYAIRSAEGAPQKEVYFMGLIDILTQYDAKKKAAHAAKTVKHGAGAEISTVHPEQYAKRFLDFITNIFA
Kind of assay: Inhibition of PIP4K2C in human PC3 cell lysates at 10 uM using desthiobiotin-tagged ATP probe AX9989 followed by trypsinization by LC/MS analysis. To be noted: PC-3.

The subject of assay [3] is PC-3. Nature of the assay: Inhibition of ZC1/HGK/ZC2/TNIK/ZC3/MINK in human PC3 cell lysates at 10 uM using desthiobiotin-tagged ATP probe AX9989 followed by trypsinization by LC/MS analysis. Type of assay: cell-free.
For assay [4], the target named is Serine/threonine-protein kinase WNK4 (Homo sapiens) (UniProt Q96J92). Nature of the assay: Inhibition of Wnk4 in human PC3 cell lysates at 10 uM using desthiobiotin-tagged ATP probe AX9989 followed by trypsinization by LC/MS analysis. To be noted: PC-3.
Assay [5] concerns the target Cyclin-dependent kinase 11B (Homo sapiens) (UniProt P21127). Kind of assay: Inhibition of CDK11 in human PC3 cell lysates at 10 uM using desthiobiotin-tagged ATP probe AX9989 followed by trypsinization by LC/MS analysis. The following applies: PC-3.
Assay [6] concerns the target Protein kinase C alpha type (Homo sapiens) (UniProt P17252). Nature of the assay: Inhibition of PKCalpha in human PC3 cell lysates at 10 uM using desthiobiotin-tagged ATP probe AX9989 followed by trypsinization by LC/MS analysis. The following applies: PC-3.
Assay [7] concerns the target T2, Mitogen-activated protein kinase kinase kinase 2 (Homo sapiens) (UniProt Q9Y2U5).
T2 sequence (whole entry): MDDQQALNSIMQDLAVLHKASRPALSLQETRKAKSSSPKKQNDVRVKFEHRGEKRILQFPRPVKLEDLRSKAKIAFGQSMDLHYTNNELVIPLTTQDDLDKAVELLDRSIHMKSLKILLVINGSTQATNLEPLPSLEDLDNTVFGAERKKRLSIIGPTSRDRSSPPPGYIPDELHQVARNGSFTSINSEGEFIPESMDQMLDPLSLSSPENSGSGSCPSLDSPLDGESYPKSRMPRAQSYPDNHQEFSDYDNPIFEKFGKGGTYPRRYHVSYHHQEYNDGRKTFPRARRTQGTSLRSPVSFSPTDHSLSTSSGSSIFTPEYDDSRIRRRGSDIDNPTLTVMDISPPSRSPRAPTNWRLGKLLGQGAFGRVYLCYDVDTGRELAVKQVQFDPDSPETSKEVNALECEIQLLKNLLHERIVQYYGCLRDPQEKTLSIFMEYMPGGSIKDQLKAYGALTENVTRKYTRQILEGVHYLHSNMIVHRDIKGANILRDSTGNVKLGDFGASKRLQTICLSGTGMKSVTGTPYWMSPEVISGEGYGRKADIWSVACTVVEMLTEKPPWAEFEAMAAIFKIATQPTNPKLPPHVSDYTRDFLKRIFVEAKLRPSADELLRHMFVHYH
Kind of assay: Inhibition of MAP3K2 in human PC3 cell lysates at 10 uM using desthiobiotin-tagged ATP probe AX9989 followed by trypsinization by LC/MS analysis. The following applies: PC-3.

For assay [8], the target named is T3, SNF-related serine/threonine-protein kinase (Homo sapiens) (UniProt Q9NRH2).
T3 sequence (whole entry): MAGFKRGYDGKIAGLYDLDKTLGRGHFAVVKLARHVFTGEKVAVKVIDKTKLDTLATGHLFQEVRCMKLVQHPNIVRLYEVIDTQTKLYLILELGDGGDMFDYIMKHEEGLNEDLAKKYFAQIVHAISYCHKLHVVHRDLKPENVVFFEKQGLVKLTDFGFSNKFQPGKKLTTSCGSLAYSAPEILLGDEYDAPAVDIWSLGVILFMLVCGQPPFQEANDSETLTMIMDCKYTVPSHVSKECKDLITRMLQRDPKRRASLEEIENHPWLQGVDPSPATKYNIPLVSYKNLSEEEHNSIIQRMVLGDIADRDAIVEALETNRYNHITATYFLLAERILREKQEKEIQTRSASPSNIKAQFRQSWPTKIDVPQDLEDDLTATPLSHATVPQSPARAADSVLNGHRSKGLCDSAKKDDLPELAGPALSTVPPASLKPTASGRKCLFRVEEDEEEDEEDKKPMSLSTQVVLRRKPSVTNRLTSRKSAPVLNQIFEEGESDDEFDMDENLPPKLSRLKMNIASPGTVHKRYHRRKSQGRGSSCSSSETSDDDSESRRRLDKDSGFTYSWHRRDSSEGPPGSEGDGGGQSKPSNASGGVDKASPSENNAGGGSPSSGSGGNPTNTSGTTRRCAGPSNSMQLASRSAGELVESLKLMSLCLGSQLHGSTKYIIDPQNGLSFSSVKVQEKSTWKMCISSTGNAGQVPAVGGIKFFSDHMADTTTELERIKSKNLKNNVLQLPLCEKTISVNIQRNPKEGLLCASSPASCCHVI
Kind of assay: Inhibition of SNRK in human PC3 cell lysates at 10 uM using desthiobiotin-tagged ATP probe AX9989 followed by trypsinization by LC/MS analysis. The following applies: PC-3.

Assay [9] concerns the target Cyclin-dependent kinase 14 (Homo sapiens) (UniProt O94921). Nature of the assay: Inhibition of PFTAIRE1 in human PC3 cell lysates at 10 uM using desthiobiotin-tagged ATP probe AX9989 followed by trypsinization by LC/MS analysis. The following applies: PC-3.

Chain of Serine/threonine-protein kinase WNK4 (Homo sapiens) (Q96J92 whole entry): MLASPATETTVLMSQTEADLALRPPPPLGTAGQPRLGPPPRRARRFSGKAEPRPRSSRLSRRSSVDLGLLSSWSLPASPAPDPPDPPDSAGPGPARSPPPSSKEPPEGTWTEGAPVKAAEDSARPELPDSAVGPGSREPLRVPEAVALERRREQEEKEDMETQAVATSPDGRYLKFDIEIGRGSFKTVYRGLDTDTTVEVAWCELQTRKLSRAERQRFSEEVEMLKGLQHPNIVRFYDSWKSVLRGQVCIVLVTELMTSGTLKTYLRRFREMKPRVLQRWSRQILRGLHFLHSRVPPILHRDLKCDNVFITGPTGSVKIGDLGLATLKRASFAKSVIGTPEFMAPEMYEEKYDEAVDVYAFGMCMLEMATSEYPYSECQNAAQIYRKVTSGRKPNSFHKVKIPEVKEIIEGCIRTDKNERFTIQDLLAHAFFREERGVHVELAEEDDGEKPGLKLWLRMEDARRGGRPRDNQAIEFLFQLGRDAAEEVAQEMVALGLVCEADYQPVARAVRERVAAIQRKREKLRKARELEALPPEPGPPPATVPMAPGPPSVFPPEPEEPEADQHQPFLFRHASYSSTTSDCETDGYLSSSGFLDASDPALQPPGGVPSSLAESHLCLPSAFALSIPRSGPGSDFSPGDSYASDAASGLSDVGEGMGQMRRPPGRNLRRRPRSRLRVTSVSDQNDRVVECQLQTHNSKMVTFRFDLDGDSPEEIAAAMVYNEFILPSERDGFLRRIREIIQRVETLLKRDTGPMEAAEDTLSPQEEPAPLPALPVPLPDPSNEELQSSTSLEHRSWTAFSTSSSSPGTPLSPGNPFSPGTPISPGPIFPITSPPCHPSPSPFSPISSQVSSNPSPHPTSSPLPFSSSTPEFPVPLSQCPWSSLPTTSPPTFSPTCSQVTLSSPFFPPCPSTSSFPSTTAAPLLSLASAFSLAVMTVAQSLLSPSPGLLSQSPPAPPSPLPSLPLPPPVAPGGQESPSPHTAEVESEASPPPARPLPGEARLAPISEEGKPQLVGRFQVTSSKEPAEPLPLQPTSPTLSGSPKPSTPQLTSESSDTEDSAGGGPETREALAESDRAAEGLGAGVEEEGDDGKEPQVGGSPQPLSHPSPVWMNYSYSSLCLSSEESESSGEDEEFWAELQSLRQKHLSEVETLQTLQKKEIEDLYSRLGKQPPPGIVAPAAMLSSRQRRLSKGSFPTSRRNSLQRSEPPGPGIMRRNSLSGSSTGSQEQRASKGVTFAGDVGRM
Chain of Cyclin-dependent kinase 11B (Homo sapiens) (P21127 whole entry): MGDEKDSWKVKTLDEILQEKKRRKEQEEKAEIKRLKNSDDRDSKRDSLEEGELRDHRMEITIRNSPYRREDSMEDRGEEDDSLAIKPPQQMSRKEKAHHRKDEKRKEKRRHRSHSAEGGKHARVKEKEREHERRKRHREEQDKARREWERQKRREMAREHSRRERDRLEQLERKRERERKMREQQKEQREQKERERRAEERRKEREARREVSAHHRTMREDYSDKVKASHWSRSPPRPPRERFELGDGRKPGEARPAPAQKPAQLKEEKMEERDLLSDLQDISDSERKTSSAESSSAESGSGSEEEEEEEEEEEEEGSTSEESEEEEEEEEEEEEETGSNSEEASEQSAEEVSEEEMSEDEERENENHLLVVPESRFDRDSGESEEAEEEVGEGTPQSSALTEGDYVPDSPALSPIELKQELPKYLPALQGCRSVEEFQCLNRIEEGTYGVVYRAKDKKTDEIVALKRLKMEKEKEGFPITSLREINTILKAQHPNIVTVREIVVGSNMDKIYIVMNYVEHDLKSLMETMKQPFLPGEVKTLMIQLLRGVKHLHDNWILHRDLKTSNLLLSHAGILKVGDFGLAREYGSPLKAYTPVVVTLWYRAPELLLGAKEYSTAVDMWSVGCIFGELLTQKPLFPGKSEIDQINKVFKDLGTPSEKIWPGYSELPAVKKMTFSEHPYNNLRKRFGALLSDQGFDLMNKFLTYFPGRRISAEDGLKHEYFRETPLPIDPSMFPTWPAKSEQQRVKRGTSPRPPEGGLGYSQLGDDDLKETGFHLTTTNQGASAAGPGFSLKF
Chain of Cyclin-dependent kinase 14 (Homo sapiens) (O94921 whole entry): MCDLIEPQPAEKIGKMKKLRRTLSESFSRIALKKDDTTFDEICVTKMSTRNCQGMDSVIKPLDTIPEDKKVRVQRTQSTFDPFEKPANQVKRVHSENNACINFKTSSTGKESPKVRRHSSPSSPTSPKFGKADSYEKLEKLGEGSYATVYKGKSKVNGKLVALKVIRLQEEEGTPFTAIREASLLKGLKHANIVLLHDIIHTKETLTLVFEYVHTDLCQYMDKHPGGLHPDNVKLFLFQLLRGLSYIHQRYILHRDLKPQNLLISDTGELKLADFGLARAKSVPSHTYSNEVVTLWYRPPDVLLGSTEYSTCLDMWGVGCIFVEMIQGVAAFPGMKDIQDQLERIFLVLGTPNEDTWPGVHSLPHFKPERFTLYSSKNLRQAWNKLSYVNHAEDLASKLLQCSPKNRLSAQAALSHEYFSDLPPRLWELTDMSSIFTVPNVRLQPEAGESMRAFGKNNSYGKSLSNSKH
Chain of Macrophage-stimulating protein receptor (Homo sapiens) (Q04912 25-304 limits assumed): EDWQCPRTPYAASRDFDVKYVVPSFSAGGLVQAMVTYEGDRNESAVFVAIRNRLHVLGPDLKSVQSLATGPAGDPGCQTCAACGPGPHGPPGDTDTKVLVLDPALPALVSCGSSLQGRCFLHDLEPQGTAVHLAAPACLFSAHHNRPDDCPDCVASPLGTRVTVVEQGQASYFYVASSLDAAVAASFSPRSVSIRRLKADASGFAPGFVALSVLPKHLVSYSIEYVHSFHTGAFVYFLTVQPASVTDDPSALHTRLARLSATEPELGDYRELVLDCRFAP
Chain of Macrophage-stimulating protein receptor (Homo sapiens) (Q04912 310-1400 limits assumed): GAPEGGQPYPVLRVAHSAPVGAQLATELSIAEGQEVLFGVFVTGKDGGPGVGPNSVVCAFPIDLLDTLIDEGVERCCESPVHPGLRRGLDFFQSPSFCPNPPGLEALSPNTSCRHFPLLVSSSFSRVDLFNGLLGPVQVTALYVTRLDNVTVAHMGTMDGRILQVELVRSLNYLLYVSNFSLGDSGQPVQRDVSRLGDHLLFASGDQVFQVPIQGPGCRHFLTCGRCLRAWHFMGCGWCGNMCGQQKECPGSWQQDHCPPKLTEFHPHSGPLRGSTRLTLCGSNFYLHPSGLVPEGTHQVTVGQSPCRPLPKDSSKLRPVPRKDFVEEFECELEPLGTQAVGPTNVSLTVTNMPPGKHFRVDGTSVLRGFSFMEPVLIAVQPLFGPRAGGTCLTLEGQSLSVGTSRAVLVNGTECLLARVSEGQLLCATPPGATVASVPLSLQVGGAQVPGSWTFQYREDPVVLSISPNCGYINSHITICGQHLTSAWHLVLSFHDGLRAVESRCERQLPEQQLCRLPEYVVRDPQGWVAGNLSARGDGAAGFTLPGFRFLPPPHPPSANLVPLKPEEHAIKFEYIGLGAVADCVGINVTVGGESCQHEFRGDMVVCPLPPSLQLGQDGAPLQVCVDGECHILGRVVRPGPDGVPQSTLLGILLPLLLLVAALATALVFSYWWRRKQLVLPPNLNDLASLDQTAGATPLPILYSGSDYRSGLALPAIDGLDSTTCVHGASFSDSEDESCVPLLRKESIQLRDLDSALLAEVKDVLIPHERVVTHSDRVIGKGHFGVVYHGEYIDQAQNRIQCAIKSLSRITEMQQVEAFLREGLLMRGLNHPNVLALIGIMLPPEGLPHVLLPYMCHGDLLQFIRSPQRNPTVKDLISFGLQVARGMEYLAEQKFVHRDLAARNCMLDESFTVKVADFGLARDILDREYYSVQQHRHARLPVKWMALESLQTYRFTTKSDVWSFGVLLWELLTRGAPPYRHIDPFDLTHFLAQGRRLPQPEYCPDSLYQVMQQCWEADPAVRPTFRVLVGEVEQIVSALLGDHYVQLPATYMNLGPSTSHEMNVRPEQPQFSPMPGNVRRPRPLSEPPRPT

Usually inhibition stands for the relative decrease from the control value, in per cent. Lower therefore signals little suppression. Take `CC[C@@H](NC(=O)c1ccc2nc(N[C@H]3CC[C@H](O)CC3)c3nccn3c2c1)c1ccccc1`: the inhibition in assay [1], in [2], in assay [3], in [4], in assay [5] and in [6] was less than 35% in each case. For the same compound, the inhibition in assay [7], in assay [8] and in assay [9] was less than 35% each time.
On to `C[C@@H](NC(=O)c1ccc2nc(N[C@H]3CC[C@H](O)CC3)c3nccn3c2c1)c1ccccc1`, for which the inhibition in [1] is less than 35%; in assay [2] it was 51%; in assay [3] it was less than 35%; in [4], less than 35%; in assay [5] it was less than 35%; in assay [6] it was less than 35%. Moreover, the inhibition in assay [7], in assay [8] and in assay [9] was less than 35% throughout.
For the compound `CCC[C@@H](NC(=O)c1ccc2nc(N[C@H]3CC[C@H](O)CC3)c3nccn3c2c1)c1ccccc1`, the inhibition in [1], in assay [2], in assay [3], in assay [4], in assay [5] and in [6] was less than 35% in each case. Further, the inhibition in assay [7], in [8] and in assay [9] was less than 35% each time.
In the case of `C[C@H](NC(=O)c1ccc2nc(N[C@H]3CC[C@H](O)CC3)c3nccn3c2c1)c1ccccc1`, the inhibition in [1], in assay [2], in [3], in [4], in assay [5] and in [6] was less than 35% each time. In addition, the inhibition in assay [7], in assay [8] and in assay [9] was less than 35% in each case.
`O=C(NC1(c2ccccc2)CC1)c1ccc2nc(N[C@H]3CC[C@H](O)CC3)c3nccn3c2c1`: the inhibition in [1], in [2], in assay [3], in assay [4], in assay [5] and in [6] was less than 35% each time. Moreover, the inhibition in assay [7], in [8] and in assay [9] was less than 35% throughout.
With `NC(=O)c1ccc2nc(N[C@H]3CC[C@H](O)CC3)c3nccn3c2c1`, the inhibition in assay [1] is less than 35%; in assay [2], 78.1%; in [3], 37%; in assay [4] it was less than 35%; in [5] it was less than 35%; in assay [6], less than 35%. Further, the inhibition in assay [7], in assay [8] and in [9] was less than 35% in each case.
For the compound `CC(C)(NC(=O)c1ccc2nc(N[C@H]3CC[C@H](O)CC3)c3nccn3c2c1)c1ccccc1`, the inhibition in assay [1], in assay [2], in assay [3], in assay [4], in assay [5] and in assay [6] was less than 35% each time. The inhibition in assay [7], in assay [8] and in assay [9] was less than 35% each time.
For the compound `O=C(N[C@H](CO)c1ccccc1)c1ccc2nc(N[C@H]3CC[C@H](O)CC3)c3nccn3c2c1`, the inhibition is less than 35% in assay [1]; 44.5% in assay [2]; less than 35% in assay [3]; less than 35% in [4]; less than 35% in assay [5]; less than 35% in [6]. Further, the inhibition in assay [7], in [8] and in [9] was less than 35% throughout.
Regarding `O=C(NC1(Cc2ccc(F)cc2)CC1)c1ccc2nc(N[C@H]3CC[C@H](O)CC3)c3nccn3c2c1`, the inhibition in [1], in assay [2], in assay [3], in assay [4], in assay [5] and in [6] was less than 35% each time. Also, the inhibition in assay [7], in assay [8] and in assay [9] was less than 35% in each case.
`O=C(NC1(c2ccc(F)cc2)CC1)c1ccc2nc(N[C@H]3CC[C@H](O)CC3)c3nccn3c2c1`: the inhibition in [1], in [2], in assay [3], in [4], in [5] and in assay [6] was less than 35% throughout. Besides, the inhibition in [7], in [8] and in assay [9] was less than 35% each time.
Turning to `O=C(NC1(c2ccccc2)CCC1)c1ccc2nc(N[C@H]3CC[C@H](O)CC3)c3nccn3c2c1`, the inhibition in assay [1], in [2], in [3], in [4], in assay [5] and in assay [6] was less than 35% in each case. For the same compound, the inhibition in assay [7], in assay [8] and in assay [9] was less than 35% each time.
On to `O=C(O)c1ccc2nc(N[C@H]3CC[C@H](O)CC3)c3nccn3c2c1`, for which the inhibition in assay [1] was less than 35%; in [2] it was 90.1%; in assay [3], less than 35%; in assay [4] it was less than 35%; in assay [5], less than 35%; in assay [6], less than 35%. Besides, the inhibition in assay [7] is less than 35%; in [8] it was less than 35%; in [9] it was 80.1%.
